Publication PMC2009897, “Comparison of mutagenesis and malignant transformation by dihydrodiols from benz[a]anthracene and 7,12-dimethylbenz[a]anthracene” (British Journal of Cancer, 1979)
Several values for one entry are separate records, joined by “and”; a condition that tells them apart may be missing. Identical values can stand only once. Like-named read-outs stand apart in the source and are kept apart here.

What was measured:
V79 cells = tested on: V79 cells; design: method as in Slaga et al., 1978; details: presence of mono-oxygenase systems; ref Slaga et al., 1978; cited from earlier work
[1] = tested on: V79 Chinese hamster cells; test: Cytotoxicity (plating efficiency) in V79 Chinese hamster cells; assay type: cell-based
[2] = tested on: Salmonella typhimurium TA100; details: cited from earlier work; for Mutagenic activity in Salmonella typhimurium TA100: presence of mono-oxygenase systems, ref Wood et al., 1976; for Microsome-mediated mutagenic activity in S. typhimurium TA100: ref Malaveille et al., 1978
M2 mouse fibroblasts [3] = test: Plating efficiency of M2 mouse fibroblasts; assay type: cell-based
[4] = tested on: V79 Chinese hamster cells
M2 mouse fibroblasts [5] = tested on: M2 mouse fibroblasts
[6] = tested on: V79 Chinese hamster cells; details: ref Wood et al. (1977a); cited from earlier work
M2 mouse fibroblasts [7] = details: cited from earlier work
newborn mice = tested on: newborn mice; design: method as in Wislocki et al., 1976; details: ref Wislocki et al., 1976; cited from earlier work
mouse skin = details: cited from earlier work
C3H/HeJ mice = details: 106 cells from 2 clones transformed by the compound, 3 mice/clone (6 mice), five weeks after injection

O[C@@H]1C=Cc2ccc3cc4ccccc4cc3c2[C@H]1O (relative stereo) [trans-1,2-Dihydro-1,2-dihydroxy BA, trans-1,2-Dihydro-1,2-dihydroxy-BA]
Mutagenic activity in V79 cells (V79 cells): not found to be active | Plating efficiency (%) in V79 cells ([1]; 1.2 µg/ml, 3 h, Table I): 99% | Plating efficiency (%) in V79 cells ([1]; 2.5 µg/ml, 3 h, Table I): 95% | Plating efficiency (%) in V79 cells ([1]; 5.0 µg/ml, 3 h, Table I): 89% | Plating efficiency (%) in V79 cells ([1]; 10.0 µg/ml, 3 h, Table I): 55% | Mutagenic activity in Salmonella typhimurium TA100 [2]: not found to be active | Plating efficiency (%) in M2 cells (M2 mouse fibroblasts [3]; 1.2 µg/ml, 24 h, Table I): 44% | Plating efficiency (%) in M2 cells (M2 mouse fibroblasts [3]; 2.5 µg/ml, 24 h, Table I): 40% | Plating efficiency (%) in M2 cells (M2 mouse fibroblasts [3]; 5.0 µg/ml, 24 h, Table I): 37% | Plating efficiency (%) in M2 cells (M2 mouse fibroblasts [3]; 10.0 µg/ml, 24 h, Table I): 10%

OC1c2cc3ccc4ccccc4c3cc2C2OC2C1O (single isomer, unassigned) [syn-isomer, benz[a]anthracene 8,9-diol 10,11-oxide]
Induction of mutations to 8-azaguanine resistance in V79 cells (result in words) [4]: mutagenic | Plating efficiency (%) in V79 cells ([1]; 0.6 µg/ml, 3 h, Table II): 56% | Plating efficiency (%) in V79 cells ([1]; 1.2 µg/ml, 3 h, Table II): 50% | Plating efficiency (%) in V79 cells ([1]; 2.5 µg/ml, 3 h, Table II): 49% | Plating efficiency (%) in V79 cells ([1]; 5.0 µg/ml, 3 h, Table II): 48% | Plating efficiency (%) in M2 cells (M2 mouse fibroblasts [3]; 1.2 µg/ml, 24 h, Table II): 47% | Plating efficiency (%) in M2 cells (M2 mouse fibroblasts [3]; 2.5 µg/ml, 24 h, Table II): 49% | Plating efficiency (%) in M2 cells (M2 mouse fibroblasts [3]; 5.0 µg/ml, 24 h, Table II): 30% | Induction of malignant transformation in M2 mouse fibroblasts (result in words) (M2 mouse fibroblasts [5]): inactive

Cc1c2c(c(C)c3c1ccc1ccccc13)[C@@H](O)[C@H](O)C=C2 (relative stereo) [trans-10,11-Dihydro-10,11-dihydroxy-DMBA, trans-10,11-dihydro-10,11-dihydroxy-DMBA]
Plating efficiency (%) in V79 cells ([1]; 0.25 µg/ml, 3 h, Table I): 76% | Plating efficiency (%) in V79 cells ([1]; 0.5 µg/ml, 3 h, Table I): 68% | Plating efficiency (%) in V79 cells ([1]; 1.0 µg/ml, 3 h, Table I): 44% | Plating efficiency (%) in M2 cells (M2 mouse fibroblasts [3]; 0.25 µg/ml, 24 h, Table I): 30% | Plating efficiency (%) in M2 cells (M2 mouse fibroblasts [3]; 0.5 µg/ml, 24 h, Table I): 26% | Plating efficiency (%) in M2 cells (M2 mouse fibroblasts [3]; 1.0 µg/ml, 24 h, Table I): 11% | Induction of malignant transformation in M2 mouse fibroblasts (result in words) (M2 mouse fibroblasts [5]): inactive in both test systems | Transformed foci/103 survivors (M2 mouse fibroblasts [5]): 0

O[C@@H]1C=Cc2cc3c(ccc4ccccc43)cc2[C@H]1O (relative stereo) [trans-8,9-Dihydro-8,9-dihydroxy-BA, trans-8,9-dihydro-8,9-dihydroxy-BA]
Plating efficiency (%) in V79 cells ([1]; 2.5 µg/ml, 3 h, Table I): 57% | Plating efficiency (%) in V79 cells ([1]; 5.0 µg/ml, 3 h, Table I): 54% | Plating efficiency (%) in V79 cells ([1]; 10.0 µg/ml, 3 h, Table I): 53% | Plating efficiency (%) in M2 cells (M2 mouse fibroblasts [3]; 2.5 µg/ml, 24 h, Table I): 44% | Plating efficiency (%) in M2 cells (M2 mouse fibroblasts [3]; 5.0 µg/ml, 24 h, Table I): 39% | Plating efficiency (%) in M2 cells (M2 mouse fibroblasts [3]; 10.0 µg/ml, 24 h, Table I): 30%

Cc1c2c(c(C)c3ccccc13)[C@@H](O)[C@H](O)c1ccccc1-2 (relative stereo) [trans-5,6-Dihydro-5,6-dihydroxy-DMBA, trans-5,6-dihydro-5,6-dihydroxy-DMBA]
Plating efficiency (%) in V79 cells ([1]; 1.0 µg/ml, 3 h, Table I): 80% | Plating efficiency (%) in V79 cells ([1]; 5.0 µg/ml, 3 h, Table I): 73% | Plating efficiency (%) in V79 cells ([1]; 10.0 µg/ml, 3 h, Table I): 57% | Plating efficiency (%) in M2 cells (M2 mouse fibroblasts [3]; 1.0 µg/ml, 24 h, Table I): 28% | Plating efficiency (%) in M2 cells (M2 mouse fibroblasts [3]; 5.0 µg/ml, 24 h, Table I): 28% | Plating efficiency (%) in M2 cells (M2 mouse fibroblasts [3]; 10.0 µg/ml, 24 h, Table I): 20% | Induction of malignant transformation in M2 mouse fibroblasts (result in words) (M2 mouse fibroblasts [5]): inactive in both test systems | Transformed foci/103 survivors (M2 mouse fibroblasts [5]): 0 | Transformed foci/dishes treated (M2 mouse fibroblasts [5]): 0/10

c1ccc2cc3c(ccc4ccccc43)cc2c1 [BA, benz[a]anthracene]
Induction of mutations to 8-azaguanine resistance in V79 cells (result in words) [4]: inactive | Plating efficiency (%) in V79 cells [1]: 82% and 70% | Plating efficiency (%) in M2 cells (M2 mouse fibroblasts [3]): 32% and 29%

OC1c2cc3ccc4ccccc4c3cc2C2OC2C1O (single isomer, unassigned) [anti-isomer, benz[a]anthracene 8,9-diol 10,11-oxide]
Plating efficiency (%) in V79 cells ([1]; 0.6 µg/ml, 3 h, Table II): 57% | Plating efficiency (%) in V79 cells ([1]; 1.2 µg/ml, 3 h, Table II): 48% | Plating efficiency (%) in V79 cells ([1]; 2.5 µg/ml, 3 h, Table II): 41% | Plating efficiency (%) in V79 cells ([1]; 5.0 µg/ml, 3 h, Table II): 35% | Induction of mutations in V79 cells, anti versus syn isomer [6]: more active than the syn | Plating efficiency (%) in M2 cells (M2 mouse fibroblasts [3]; 1.2 µg/ml, 24 h, Table II): 26% | Plating efficiency (%) in M2 cells (M2 mouse fibroblasts [3]; 2.5 µg/ml, 24 h, Table II): 12% | Plating efficiency (%) in M2 cells (M2 mouse fibroblasts [3]; 5.0 µg/ml, 24 h, Table II): 6%

Cc1c2c(c(C)c3c1ccc1ccccc13)C=C[C@@H](O)[C@@H]2O (relative stereo) [trans-8,9-Dihydro-8,9-dihydroxy-DMBA, trans-8,9-dihydro-8,9-dihydroxy-DMBA]
Activity in M2 cells (malignant transformation), earlier observations (M2 mouse fibroblasts [7]): active | Plating efficiency (%) in V79 cells ([1]; 0.25 µg/ml, 3 h, Table I): 62% | Plating efficiency (%) in V79 cells ([1]; 0.5 µg/ml, 3 h, Table I): 45% | Plating efficiency (%) in V79 cells ([1]; 1.0 µg/ml, 3 h, Table I): 32% | Microsome-mediated mutagenic activity in S. typhimurium TA100 [2]: some mutagenic activity | Plating efficiency (%) in M2 cells (M2 mouse fibroblasts [3]; 0.25 µg/ml, 24 h, Table I): 26% | Plating efficiency (%) in M2 cells (M2 mouse fibroblasts [3]; 0.5 µg/ml, 24 h, Table I): 22% | Plating efficiency (%) in M2 cells (M2 mouse fibroblasts [3]; 1.0 µg/ml, 24 h, Table I): 7% | Induction of malignant transformation in M2 mouse fibroblasts (result in words) (M2 mouse fibroblasts [5]): induced mutations in V79 cells and malignant transformation in M2 mouse fibroblasts | Malignant transformation in M2 cells compared with the parent hydrocarbon (M2 mouse fibroblasts [5]): more active than the parent hydrocarbon

Cc1c2ccccc2c(C)c2c1ccc1ccccc12 [DMBA, 7,12-dimethylbenz[a]anthracene]
Induction of mutations to 8-azaguanine resistance in V79 cells (result in words) [4]: inactive | Plating efficiency (%) in V79 cells [1]: 63% and 39% | Plating efficiency (%) in M2 cells (M2 mouse fibroblasts [3]): 26% and 24% | Induction of malignant transformation in M2 mouse fibroblasts (result in words) (M2 mouse fibroblasts [5]): some activity

O[C@@H]1c2ccccc2-c2cc3ccccc3cc2[C@H]1O (relative stereo) [trans-5,6-Dihydro-5,6-dihydroxy BA, trans-5,6-Dihydro-5,6-dihydroxy-BA]
Plating efficiency (%) in V79 cells ([1]; 2.5 µg/ml, 3 h, Table I): 85% | Plating efficiency (%) in V79 cells ([1]; 5.0 µg/ml, 3 h, Table I): 74% | Plating efficiency (%) in V79 cells ([1]; 10.0 µg/ml, 3 h, Table I): 59% | Plating efficiency (%) in M2 cells (M2 mouse fibroblasts [3]; 2.5 µg/ml, 24 h, Table I): 44% | Plating efficiency (%) in M2 cells (M2 mouse fibroblasts [3]; 5.0 µg/ml, 24 h, Table I): 42% | Plating efficiency (%) in M2 cells (M2 mouse fibroblasts [3]; 10.0 µg/ml, 24 h, Table I): 40%

O[C@@H]1C=Cc2c(ccc3cc4ccccc4cc23)[C@H]1O (relative stereo) [trans-3,4-Dihydro-3,4-dihydroxy BA, trans-3,4-dihydro-3,4-dihydroxy-BA]
Mutagenic activity in V79 cells (V79 cells): active | Plating efficiency (%) in V79 cells ([1]; 2.5 µg/ml, 3 h, Table I): 93% | Plating efficiency (%) in V79 cells ([1]; 5.0 µg/ml, 3 h, Table I): 84% | Plating efficiency (%) in V79 cells ([1]; 10.0 µg/ml, 3 h, Table I): 56% | Mutagenic activity in Salmonella typhimurium TA100 [2]: active | Plating efficiency (%) in M2 cells (M2 mouse fibroblasts [3]; 2.5 µg/ml, 24 h, Table I): 50% | Plating efficiency (%) in M2 cells (M2 mouse fibroblasts [3]; 5.0 µg/ml, 24 h, Table I): 38% | Plating efficiency (%) in M2 cells (M2 mouse fibroblasts [3]; 10.0 µg/ml, 24 h, Table I): 12% | Inducer of tumours in newborn mice (newborn mice): highly active | Initiator of tumours on mouse skin (mouse skin; ref Wood et al., 1977b, Slaga et al., 1978): highly active

Cc1c2ccccc2c(C)c2c3c(ccc12)[C@@H](O)[C@H](O)C=C3 (relative stereo) [trans-3,4-Dihydro-3,4-dihydroxy-DMBA, trans-3,4-dihydro-3,4-dihydroxy-DMBA]
Animals that developed malignant fibrosarcomas (C3H/HeJ mice): 6 animals | Plating efficiency (%) in V79 cells ([1]; 0.12 µg/ml, 3 h, Table I): 67% | Plating efficiency (%) in V79 cells ([1]; 0.25 µg/ml, 3 h, Table I): 58% | Plating efficiency (%) in V79 cells ([1]; 0.5 µg/ml, 3 h, Table I): 50% | Plating efficiency (%) in V79 cells ([1]; 1.0 µg/ml, 3 h, Table I): 43% | Microsome-mediated mutagenic activity in S. typhimurium TA100 [2]: high | Plating efficiency (%) in M2 cells (M2 mouse fibroblasts [3]; 0.12 µg/ml, 24 h, Table I): 31% | Plating efficiency (%) in M2 cells (M2 mouse fibroblasts [3]; 0.25 µg/ml, 24 h, Table I): 26% | Plating efficiency (%) in M2 cells (M2 mouse fibroblasts [3]; 0.5 µg/ml, 24 h, Table I): 25% | Plating efficiency (%) in M2 cells (M2 mouse fibroblasts [3]; 1.0 µg/ml, 24 h, Table I): 15% | Induction of malignant transformation in M2 mouse fibroblasts (result in words) (M2 mouse fibroblasts [5]): induced mutations in V79 cells and malignant transformation in M2 mouse fibroblasts | Malignant transformation in M2 cells compared with the parent hydrocarbon (M2 mouse fibroblasts [5]): more active than the parent hydrocarbon | Initiator of tumours on mouse skin (mouse skin; ref I. Chouroulinkov, personal communication): acts as an initiator of tumours on mouse skin

O[C@@H]1C=Cc2cc3ccc4ccccc4c3cc2[C@H]1O (relative stereo) [trans-10,11-Dihydro-10,11-dihydroxy-BA, trans-10,11-dihydro-10,11-dihydroxy-BA]
Plating efficiency (%) in M2 cells (M2 mouse fibroblasts [3]; 2.5 µg/ml, 24 h, Table I): 44% | Plating efficiency (%) in M2 cells (M2 mouse fibroblasts [3]; 5.0 µg/ml, 24 h, Table I): 37% | Plating efficiency (%) in M2 cells (M2 mouse fibroblasts [3]; 10.0 µg/ml, 24 h, Table I): 29%
